Values of other authors as cited in patent publication US8106028B2, “MicroRNA-21 antagonists and its target PDCD4 for use in the treatment of a glioma” (Trustees of Dartmouth College, priority 2009, dated 2012).

Test system: PDCD4
Settings: breast cancer cells; Afonja, et al. (2004)

Compound: CC1(C)CCC(C)(C)c2cc(C(=O)Nc3ccc(C(=O)O)cc3)ccc21 [Am580]
- expression of PDCD4: stimulate the expression of PDCD4
